Source: ChEMBL document CHEMBL1155451, “Complexes of bacterial nicotinate mononucleotide adenylyltransferase with inhibitors: implication for structure-based drug design and improvement” (J Med Chem, 2010)
Activity calls are given as the source filed them. The calls are words filed in the database; no cut-off is given here.

Legend:
[1] = biological target: T1, Probable nicotinate-nucleotide adenylyltransferase (Bacillus anthracis, UniProt C3L5T6)
T1 sequence (C3L5T6 whole entry): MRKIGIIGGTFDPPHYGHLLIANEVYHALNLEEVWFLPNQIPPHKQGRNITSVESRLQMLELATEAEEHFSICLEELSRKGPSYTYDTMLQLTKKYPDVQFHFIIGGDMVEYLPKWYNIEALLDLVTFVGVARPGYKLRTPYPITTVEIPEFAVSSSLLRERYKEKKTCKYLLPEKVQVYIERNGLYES

[2] = biological target: T2, Probable nicotinate-nucleotide adenylyltransferase (Bacillus anthracis) (UniProt C3L5T6); assay: Inhibition of Bacillus anthracis nicotinate-nucleotide adenosyltransferase up to 100 uM preincubated for 5 mins before addition of substrate by malachite green reagent method
T2 sequence (whole entry): T1 sequence (C3L5T6 whole entry)

Compound | IC50 [1] | inhibition [2]
CC(/C=N/NC(=O)CCC(=O)Nc1ccc(Br)cc1)c1ccc2ccccc2c1 (stereo not drawn) | > 200 µM | –
O=C(O)CN(/N=C/c1cccc2ccccc12)C(=O)CCC(=O)Nc1ccccc1Cl | > 200 µM | –
O=C(O)CN(/N=C/c1ccc(/C=N/N(CC(=O)O)C(=O)CCC(=O)Nc2ccccc2Cl)cc1)C(=O)CCC(=O)Nc1ccccc1Cl | – | inactive
